Measured values as given in US20230167073A1 (Teijin Pharma Limited, priority 2020, published 2023).

Molecular target: T1, Human TRPC6 (Homo sapiens, UniProt Q9Y210)
T1 construct: expressed in transfected cells
T1 sequence (Q9Y210 1-931): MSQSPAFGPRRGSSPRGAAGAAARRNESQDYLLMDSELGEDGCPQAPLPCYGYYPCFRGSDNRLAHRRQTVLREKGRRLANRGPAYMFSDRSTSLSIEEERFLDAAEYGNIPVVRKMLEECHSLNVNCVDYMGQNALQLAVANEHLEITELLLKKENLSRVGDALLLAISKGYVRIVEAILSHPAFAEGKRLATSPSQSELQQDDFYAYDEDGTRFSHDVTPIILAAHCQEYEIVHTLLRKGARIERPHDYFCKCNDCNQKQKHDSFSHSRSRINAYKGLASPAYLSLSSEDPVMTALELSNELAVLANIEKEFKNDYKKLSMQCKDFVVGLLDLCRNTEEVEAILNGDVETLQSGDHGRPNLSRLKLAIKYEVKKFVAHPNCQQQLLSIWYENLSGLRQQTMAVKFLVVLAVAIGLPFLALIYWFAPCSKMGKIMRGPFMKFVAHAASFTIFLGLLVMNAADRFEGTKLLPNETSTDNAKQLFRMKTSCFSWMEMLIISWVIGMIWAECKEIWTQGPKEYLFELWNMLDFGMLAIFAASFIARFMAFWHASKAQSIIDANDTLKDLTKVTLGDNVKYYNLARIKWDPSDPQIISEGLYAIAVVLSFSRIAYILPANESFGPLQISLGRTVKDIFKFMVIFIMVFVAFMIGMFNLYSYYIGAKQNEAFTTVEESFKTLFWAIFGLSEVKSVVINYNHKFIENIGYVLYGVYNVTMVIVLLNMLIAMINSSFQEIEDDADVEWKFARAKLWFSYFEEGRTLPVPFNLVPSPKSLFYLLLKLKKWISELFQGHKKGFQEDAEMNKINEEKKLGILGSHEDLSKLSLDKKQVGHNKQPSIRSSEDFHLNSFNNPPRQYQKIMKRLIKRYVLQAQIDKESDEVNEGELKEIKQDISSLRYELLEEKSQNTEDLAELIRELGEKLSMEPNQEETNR
Experiment: Evaluation of TRPC6 channel inhibitory activity (1), FLIPR Calcium 5 Assay Kit, OAG stimulation (Compound Nos. 1-1293)
Assay type: cell-based
Settings: Human TRPC6 stably-expressing cells, OAG 30 μM, FLIPR Calcium 5 Assay Kit; read-out: Inhibitory activity (pIC50 class) (converted)
Summary of the method: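 Calcium influx read by FLIPR fluorescence in cells stably expressing human TRPC6, dye-loaded 30 min. Compounds preincubated 20 min, then OAG stimulation at 30 μM final. Inhibition fitted by four-parameter logistic regression to give pIC50, reported as +/++/+++ categories.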

Row | IC50 [µM] | SMILES
1 | > 1 | Cc1cc(Oc2cc(C#N)ccc2-c2ccc(CC(C)(C)NCC(=O)N(C)C)cn2)cc(N2CCOCC2)n1 [compound 840, 2-[[1-[6-[4-cyano-2-(2-methyl-6-morpholin-4-ylpyridin-4-yl)oxyphenyl]pyridin-3-yl]-2-methylpropan-2-yl]amino]-N,N-dimethylacetamide]
2 | > 1 | Cc1cc(Oc2cc(C#N)ccc2-c2ncc(CNCC(N)=O)cn2)cc(-c2ccccn2)n1 [compound 841, 2-[[2-[4-cyano-2-(2-methyl-6-pyridin-2-ylpyridin-4-yl)oxyphenyl]pyrimidin-5-yl]methylamino]acetamide]
3 | < 0.01 | CCN(c1cc(Oc2cc(C#N)ccc2-c2ncc(CCN)cn2)n(C)n1)C(C)C [compound 842, 4-[5-(2-aminoethyl)pyrimidin-2-yl]-3-[5-[ethyl(propan-2-yl)amino]-2-methylpyrazol-3-yl]oxybenzonitrile]
4 | > 1 | COCCOc1cc(Oc2cc(C#N)ccc2-c2ncc(CN)cn2)nc(C)n1 [compound 843, 4-[5-(aminomethyl)pyrimidin-2-yl]-3-[6-(2-methoxyethoxy)-2-methylpyrimidin-4-yl]oxybenzonitrile]
5 | > 1 | Cc1nc(Oc2cc(C#N)ccc2-c2ncc(CN)cn2)cc(O[C@@H]2CCOC2)n1 [compound 844, 4-[5-(aminomethyl)pyrimidin-2-yl]-3-[2-methyl-6-[(3R)-oxolan-3-yl]oxypyrimidin-4-yl]oxybenzonitrile]
6 | > 1 | Cc1nc(Oc2cc(C#N)ccc2-c2ncc(CN)cn2)cc(O[C@H]2CCOC2)n1 [compound 845, 4-[5-(aminomethyl)pyrimidin-2-yl]-3-[2-methyl-6-[(3S)-oxolan-3-yl]oxypyrimidin-4-yl]oxybenzonitrile]
7 | 0.01 to 1 | Cc1nc(OCC(C)C)cc(Oc2cc(C#N)ccc2-c2ncc(CN)cn2)n1 [compound 846, 4-[5-(aminomethyl)pyrimidin-2-yl]-3-[2-methyl-6-(2-methylpropoxy)pyrimidin-4-yl]oxybenzonitrile]
8 | > 1 | Cc1nc(OCC2CC2(F)F)cc(Oc2cc(C#N)ccc2-c2ncc(CN)cn2)n1 (stereo not drawn) [compound 847, 4-[5-(aminomethyl)pyrimidin-2-yl]-3-[6-[(2,2-difluorocyclopropyl)methoxy]-2-methylpyrimidin-4-yl]oxybenzonitrile]
9 | < 0.01 | Cc1nc(Oc2cc(C#N)ccc2-c2ncc(CCN)cn2)cc(OC(C)C)n1 [compound 848, 4-[5-(2-aminoethyl)pyrimidin-2-yl]-3-(2-methyl-6-propan-2-yloxypyrimidin-4-yl)oxybenzonitrile]
10 | < 0.01 | Cc1nc(OCC(C)C)cc(Oc2cc(C#N)ccc2-c2ncc(CCN)cn2)n1 [compound 849, 4-[5-(2-aminoethyl)pyrimidin-2-yl]-3-[2-methyl-6-(2-methylpropoxy)pyrimidin-4-yl]oxybenzonitrile]
11 | < 0.01 | Cc1nc(Oc2cc(C#N)ccc2-c2ncc(CN)cn2)cc(N2C=NCCC2)n1 [compound 850, 4-[5-(aminomethyl)pyrimidin-2-yl]-3-[6-(5,6-dihydro-4H-pyrimidin-1-yl)-2-methylpyrimidin-4-yl]oxybenzonitrile]
12 | > 1 | Cc1nc(Oc2cc(C#N)ccc2-c2ncc(CN)cn2)cc(N2CCCC2=O)n1 [compound 851, 4-[5-(aminomethyl)pyrimidin-2-yl]-3-[2-methyl-6-(2-oxopyrrolidin-1-yl)pyrimidin-4-yl]oxybenzonitrile]
13 | > 1 | Cc1nc(Oc2cc(C#N)ccc2-c2ncc(CN)cn2)cc(N(C)C2COC2)n1 [compound 852, 4-[5-(aminomethyl)pyrimidin-2-yl]-3-[2-methyl-6-[methyl(oxetan-3-yl)amino]pyrimidin-4-yl]oxybenzonitrile]
14 | 0.01 to 1 | Cc1nc(Oc2cc(C#N)ccc2-c2ncc(CCN)cn2)cc(N2CCC2)n1 [compound 853, 4-[5-(2-aminoethyl)pyrimidin-2-yl]-3-[6-(azetidin-1-yl)-2-methylpyrimidin-4-yl]oxybenzonitrile]
15 | < 0.01 | CCN(C)c1cc(Oc2cc(C#N)ccc2-c2ncc(CCN)cn2)nc(C)n1 [compound 854, 4-[5-(2-aminoethyl)pyrimidin-2-yl]-3-[6-[ethyl(methyl)amino]-2-methylpyrimidin-4-yl]oxybenzonitrile]
16 | 0.01 to 1 | Cc1nc(Oc2cc(C#N)ccc2-c2ncc(CCN)cn2)cc(N2CCC2=O)n1 [compound 855, 4-[5-(2-aminoethyl)pyrimidin-2-yl]-3-[2-methyl-6-(2-oxoazetidin-1-yl)pyrimidin-4-yl]oxybenzonitrile]
17 | < 0.01 | CCN(CC)c1cc(Oc2cc(C#N)ccc2-c2ncc(CCN)cn2)nc(C)n1 [compound 856, 4-[5-(2-aminoethyl)pyrimidin-2-yl]-3-[6-(diethylamino)-2-methylpyrimidin-4-yl]oxybenzonitrile]
18 | < 0.01 | Cc1nc(Oc2cc(C#N)ccc2-c2ncc(CCN)cn2)cc(N(C)C(C)C)n1 [compound 857, 4-[5-(2-aminoethyl)pyrimidin-2-yl]-3-[2-methyl-6-[methyl(propan-2-yl)amino]pyrimidin-4-yl]oxybenzonitrile]
19 | 0.01 to 1 | Cc1nc(Oc2cc(C#N)ccc2-c2ncc(CCN)cn2)cc(N2CC(F)C2)n1 [compound 858, 4-[5-(2-aminoethyl)pyrimidin-2-yl]-3-[6-(3-fluoroazetidin-1-yl)-2-methylpyrimidin-4-yl]oxybenzonitrile]
20 | < 0.01 | Cc1nc(Oc2cc(C#N)ccc2-c2ncc(CCN)cn2)cc(N2CCC[C@H]2C)n1 [compound 859, 4-[5-(2-aminoethyl)pyrimidin-2-yl]-3-[2-methyl-6-[(2R)-2-methylpyrrolidin-1-yl]pyrimidin-4-yl]oxybenzonitrile]
21 | < 0.01 | Cc1nc(Oc2cc(C#N)ccc2-c2ncc(CCN)cn2)cc(N2CCC[C@@H]2C)n1 [compound 860, 4-[5-(2-aminoethyl)pyrimidin-2-yl]-3-[2-methyl-6-[(2S)-2-methylpyrrolidin-1-yl]pyrimidin-4-yl]oxybenzonitrile]
22 | < 0.01 | Cc1nc(Oc2cc(C#N)ccc2-c2ncc(CCN)cn2)cc(N(C)CC2CC2)n1 [compound 861, 4-[5-(2-aminoethyl)pyrimidin-2-yl]-3-[6-[cyclopropylmethyl(methyl)amino]-2-methylpyrimidin-4-yl]oxybenzonitrile]
23 | 0.01 to 1 | COCCN(C)c1cc(Oc2cc(C#N)ccc2-c2ncc(CCN)cn2)nc(C)n1 [compound 862, 4-[5-(2-aminoethyl)pyrimidin-2-yl]-3-[6-[2-methoxyethyl(methyl)amino]-2-methylpyrimidin-4-yl]oxybenzonitrile]
24 | > 1 | CC(C)OCCN(C)c1cc(Oc2cc(C#N)ccc2-c2ncc(CCN)cn2)n(C)n1 [compound 863, 4-[5-(2-aminoethyl)pyrimidin-2-yl]-3-[2-methyl-5-[methyl(2-propan-2-yloxyethyl)amino]pyrazol-3-yl]oxybenzonitrile]
25 | 0.01 to 1 | Cc1nn(C2CCCCC2)cc1Oc1cc(C#N)ccc1-c1ncc(CCN)cn1 [compound 864, 4-[5-(2-aminoethyl)pyrimidin-2-yl]-3-(1-cyclohexyl-3-methylpyrazol-4-yl)oxybenzonitrile]
26 | > 1 | Cc1nn(C2CCCCC2)cc1Oc1cc(C#N)ccc1-c1ncc(CN)cn1 [compound 865, 4-[5-(aminomethyl)pyrimidin-2-yl]-3-(1-cyclohexyl-3-methylpyrazol-4-yl)oxybenzonitrile]
27 | < 0.01 | Cn1nc(N2CC(F)(F)C(F)(F)C2)cc1Oc1cc(C#N)ccc1-c1ncc(CN)cn1 [compound 866, 4-[5-(aminomethyl)pyrimidin-2-yl]-3-[2-methyl-5-(3,3,4,4-tetrafluoropyrrolidin-1-yl)pyrazol-3-yl]oxybenzonitrile]
28 | > 1 | COC(C)(C)CN(C)c1cc(Oc2cc(C#N)ccc2-c2ncc(CN)cn2)n(C)n1 [compound 867, 4-[5-(aminomethyl)pyrimidin-2-yl]-3-[5-[(2-methoxy-2-methylpropyl)-methylamino]-2-methylpyrazol-3-yl]oxybenzonitrile]
29 | 0.01 to 1 | COC(C)(C)CN(C)c1cc(Oc2cc(C#N)ccc2-c2ncc(CCN)cn2)n(C)n1 [compound 868, 4-[5-(2-aminoethyl)pyrimidin-2-yl]-3-[5-[(2-methoxy-2-methylpropyl)-methylamino]-2-methylpyrazol-3-yl]oxybenzonitrile]
30 | > 1 | Cn1nc(C2CC2)cc1Oc1cc(C#N)ccc1-c1ccc(N2CC[C@@H](F)[C@H](N)C2)cn1 [compound 869, 4-[5-[(4R)-3-amino-4-fluoropiperidin-1-yl]pyridin-2-yl]-3-(5-cyclopropyl-2-methylpyrazol-3-yl)oxybenzonitrile]
